{
  "source": "patent US20060148903A1",
  "about": "“Capsaicinoid gel formulation and uses thereof” (AlgoRx Pharmaceuticals, Inc., priority 2004, published 2006)",
  "key": {"physchem [1]": {"test": "physchem", "assay_type": "physicochemical", "conditions": "25 °C, thermodynamic from solid", "method": "A known weight of capsaicin drug substance was weighed into a 4 ml Wheaton vial. A known volume of solvent was added and the sample placed in an ultrasonic bath for a minimum of 5 minutes. The temperature of the water bath was kept <25° C. at all times. Samples were transferred to a shaker bath at 25° C./60% RH and left for a minimum of 5 days. The samples were inspected and samples showing saturation (excess solid material remaining) removed for analysis. An additional known weight of capsaicin was added to the remaining samples and they were returned to the shaker bath. This was repeated until all samples had reached saturation.\nSamples were filtered through a 0.45 μm PVDF Millipore Millex-HV hydrophilic disposable filter into a clean Wheaton vial. Sample absorbance was determined at 280 nm using 2 mm matched cuvettes. Samples were read against their equivalent solvent blank. Where necessary samples were diluted with methanol and these samples read against a methanol blank.\nThe concentration of each solution was determined by comparison with the absorbance of a capsaicin reference standard solution of known concentration.\nTween 80 results were very promising therefore the two materials were combined to investigate any possible synergistic effect on capsaicin solubility. […]"}, "physchem [2]": {"test": "physchem", "assay_type": "physicochemical", "conditions": "for solubility at 7 days: 2 °C; for solubility at 7 days / solubility at 4 days: thermodynamic from solid; for solubility at 4 days: 25 °C; for Indicative solubility of capsaicin, Concentration mg/ml: 4 days", "method": "The solubility of capsaicin was determined for the following vehicles by adding an excess of capsaicin and determining the saturation solubility by UV analysis of the supernatant.\nAliquots of 5 ml of each vehicle were dispensed into vials in duplicate and excess capsaicin added equivalent to 5 mg/ml. A small magnetic stirrer bar was introduced into vials containing the gel vehicle and mixed for approximately 5 minutes to disperse the capsaicin. All vials were sonicated for a total of 20 minutes maintaining the temperature below 25° C. The vials were stirred for a further hour.\nOne vial from each formulation was placed at 25° C./60% RH and one vial from each formulation was placed on a shaker at 2-8° C.\nVials were removed from 25° C./60% RH after storage for 4 days. Vials stored at 2-8° C. were removed from the shaker after storage for 4 days and returned to 2-8° C. to equilibrate further before being removed after storage for a total of 7 days.\nA reference solution containing capsaicin 0.06 mg/ml in methanol was prepared. Samples were centrifuged for 20 minutes at 15000 rpm. The resultant supernatant from each vial was carefully transferred to fresh vials. The supernatant from each sample was diluted 1 in 50 with methanol and analyzed by UV at 280 nm using matched quartz cuvettes versus a methanol blank."}, "[3]": {"conditions": "fold more potent than capsaicin; cited from earlier work"}, "[4]": {"conditions": "pH 5.5, aqueous with cosolvent or surfactant or cyclodextrin, Indicative solubility of capsaicin, Concentration mg/ml"}, "[5]": {"conditions": "pH 7, aqueous with cosolvent or surfactant or cyclodextrin, Indicative solubility of capsaicin, Concentration mg/ml"}},
  "data": [
    {"smiles": "COc1cc(CNC(=O)CCCC/C=C/C(C)C)ccc1O", "note": "[Capsaicin, N-(4-hydroxy-3-methoxybenzyl)-8-methylnon-trans-6-enamide]", "values": [
      {"measurement": "solubility", "setting": "physchem [1]; aqueous with cosolvent or surfactant or cyclodextrin, increase of capsaicin solubility for each 1% increase in Tween 80", "value": "~1000", "unit": "µg/mL"},
      {"measurement": "solubility", "setting": "physchem [1]; organic solvent or mixture, Capsaicin Solubility (mg/ml)", "value": 160000, "unit": "µg/mL"},
      {"measurement": "solubility at 7 days", "setting": "physchem [2]; [4]", "value": 2200, "unit": "µg/mL"},
      {"measurement": "solubility at 7 days", "setting": "physchem [2]; [5]", "value": 2000, "unit": "µg/mL"},
      {"measurement": "solubility at 4 days", "setting": "physchem [2]; aqueous with cosolvent or surfactant or cyclodextrin, solubility of capsaicin gel formulations", "value": 2000, "unit": "µg/mL"},
      {"measurement": "solubility at 4 days", "setting": "physchem [2]; [4]", "value": 2200, "unit": "µg/mL"},
      {"measurement": "solubility at 4 days", "setting": "physchem [2]; [5]", "value": 2100, "unit": "µg/mL"},
      {"measurement": "solubility at 4 days", "setting": "physchem [2]; pH 7, aqueous with cosolvent or surfactant or cyclodextrin, capsaicin solubility in isotonic gel vehicles", "value": "~2000", "unit": "µg/mL"},
      {"measurement": "Indicative solubility of capsaicin, Concentration mg/ml", "setting": "physchem [2]; pH 5.5", "value": 2.1, "unit": "mg/mL"},
      {"measurement": "Indicative solubility of capsaicin, Concentration mg/ml", "setting": "physchem [2]; pH 7", "value": 1.9, "unit": "mg/mL"},
      {"measurement": "capsaicin concentration in gel formulations", "setting": "physchem [2]; gel formulations stored at 2-8° C.", "value": 2, "unit": "mg/mL"}
    ]},
    {"smiles": "C=C(C)[C@]12C[C@@H](C)[C@@]34O[C@](Cc5ccccc5)(O[C@@H]1[C@@H]3C=C(COC(=O)Cc1ccc(O)c(OC)c1)C[C@]1(O)C(=O)C(C)=C[C@@H]41)O2", "note": "[Resiniferatoxin]", "values": [
      {"measurement": "potency relative to capsaicin", "setting": "[3]", "value": "103-104 fold"}
    ]}
  ]
}
